According to US10844032B2, “Substituted benzofuran, benzothiophene and indole Mcl-1 inhibitors” (Vanderbilt University, priority 2012, dated 2020):
Read-outs that look alike come from different tables or passages of the source.

How the values were obtained:
[1] = tested on: MDA-MB-231; test: Cellular proliferation, CellTiter-Glo, MDA-MB-231; format: cell-based; conditions: Homo sapiens; MDA-MB-231, 10% FBS, 72 hours
Procedure: (§1) To evaluate compound effect on cellular proliferation, cells were plated at 1,000 cells/well in 96-well tissue culture plates in a total volume of 90 uL medium supplemented with 10% FBS (Sigma, Saint Louis, Mo.). 24 hours later, 10 uL of compound (in a 2-fold serial dilution) is added to the cells for a top concentration of 50 uM and a final DMSO concentration <1%. After 72 hours, cell number was measured using the CellTiter-Glo Luminescent assay according to manufacturer's recommendations (Promega, Madison, Wis.). A viability assay in reduced serum was also conducted. Cells were plated at 5,000 cells/well in 96-well plates in a total volume of 100 uL medium supplemented with 10% FBS (Sigma, Saint Louis, Mo.). 24 hours later, the medium was replaced with 90 uL medium containing 1% FBS and the assay conducted as described. IC50 values were determined by plotting growth against compound concentration in a 4-parameter logisitic model in XLFit.

[2] = tested on: K562; test: Cellular proliferation, CellTiter-Glo, K562; format: cell-based; conditions: Homo sapiens; K562, 10% FBS, 72 hours
Procedure: as §1

[3] = tested on: MDA-MB-468; test: Cellular proliferation, CellTiter-Glo, MDA-MB-468; format: cell-based; conditions: Homo sapiens, MDA-MB-468, 72 h, read-out: IC50 on cellular proliferation, MDA-MB-468
Procedure: as §1

[4] = tested on: MDA-MB-231; test: Cellular viability in reduced serum, CellTiter-Glo, MDA-MB-231; format: cell-based; conditions: Homo sapiens; MDA-MB-231, reduced serum (1% FBS)
Procedure: as §1

[5] = tested on: NCI-929; test: Cellular proliferation, CellTiter-Glo, NCI-929; format: cell-based; conditions: Homo sapiens; NCI-929, 10% FBS, 72 hours
Procedure: as §1

[6] = tested on: K562; test: Cellular viability in reduced serum, CellTiter-Glo, K562; format: cell-based; conditions: Homo sapiens; K562, reduced serum (1% FBS)
Procedure: as §1

[7] = tested on: NCI-929; test: Cellular viability in reduced serum, CellTiter-Glo, NCI-929; format: cell-based; conditions: Homo sapiens; NCI-929, reduced serum (1% FBS)
Procedure: as §1

[8] = tested on: MDA-MB-468; test: Cellular viability in reduced serum, CellTiter-Glo, MDA-MB-468; format: cell-based; conditions: Homo sapiens, MDA-MB-468, read-out: IC50 on cellular viability, MDA-MB-468
Procedure: as §1

[9] = biological target: recombinant Mcl-1 (residues 172-327) (Homo sapiens (Human), UniProt Q07820); test: Bak peptide fluorescence polarization anisotropy competition assay, Mcl-1; format: binding; conditions: read-out: Ki for inhibition of Mcl-1
recombinant Mcl-1 (residues 172-327), sequence (Q07820 172-327): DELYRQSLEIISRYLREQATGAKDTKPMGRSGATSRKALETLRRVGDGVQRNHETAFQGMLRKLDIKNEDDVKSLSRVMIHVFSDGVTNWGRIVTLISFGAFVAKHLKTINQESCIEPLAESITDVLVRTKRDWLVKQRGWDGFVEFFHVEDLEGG

[10] = biological target: Bcl-xL (residues 1-209, loop 45-86 deleted) (Homo sapiens (Human), UniProt Q07817, DEL45-86); test: Bak peptide fluorescence polarization anisotropy competition assay, Bcl-xL selectivity; format: binding; conditions: Table 3; FITC-Bak peptide 10 nM, Bcl-xL 4 nM
Bcl-xL (residues 1-209, loop 45-86 deleted), sequence (Q07817 other isoform, or with tags, fused parts or gaps del 45-86): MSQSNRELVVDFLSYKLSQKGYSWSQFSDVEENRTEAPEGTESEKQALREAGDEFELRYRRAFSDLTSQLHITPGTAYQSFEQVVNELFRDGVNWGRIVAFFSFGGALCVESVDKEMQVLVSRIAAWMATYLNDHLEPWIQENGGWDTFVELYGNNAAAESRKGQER
Procedure: (§2) Compound affinity was measured using a fluorescence polarization anisotropy competition assay. Anisotropy measurements were carried out in 384-well, black, flat-bottom plates (Greiner Bio-one, Monroe, N.C., USA).
(§3) Compounds are diluted in DMSO in a 10-point, 3-fold serial dilution scheme. 2.5 uL compound is added to 47.5 uL of assay buffer containing FITC-Bak and protein, for a final DMSO concentration of 5% and a top concentration of 20 uM. […] The plate was mixed and incubated for 90 minutes at room temperature.

[11] = biological target: Bcl-2 (residues 1-207 A96T,G110R, Δ35-91, replaced with Bcl-xL35-50) (Homo sapiens, UniProt P10415, A37E/DEL42-87/G36T/INS34DVEEN/P40E/P88T/P90S/P91E/V35R/V89E); test: Bak peptide fluorescence polarization anisotropy competition assay, Bcl-2 selectivity; format: binding; conditions: Table 3; FITC-Bak peptide 10 nM, Bcl-2 40 nM
Bcl-2 (residues 1-207 A96T,G110R, Δ35-91, replaced with Bcl-xL35-50), sequence (P10415 with tags, fused parts or gaps A37E/DEL42-87/G36T/INS34DVEEN/P40E/P88T/P90S/P91E/V35R/V89E): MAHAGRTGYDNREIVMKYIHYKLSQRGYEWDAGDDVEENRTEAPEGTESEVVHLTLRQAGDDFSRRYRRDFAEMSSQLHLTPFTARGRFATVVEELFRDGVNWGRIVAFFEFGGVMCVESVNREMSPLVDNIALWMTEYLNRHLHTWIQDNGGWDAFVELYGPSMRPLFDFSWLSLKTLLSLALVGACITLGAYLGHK
Procedure: as §2, §3

[12] = Table 2, Ki range, FITC-Bak peptide 10 nM, Mcl-1 14 nM

Cc1cc(OCCCc2c(C(=O)NS(=O)(=O)CCNC(=O)c3cccn3C)[nH]c3c(-c4c(CO)nn(C)c4C)cccc23)cc(C)c1Cl [Example 206, 3-(3-(4-chloro-3,5-dimethylphenoxy)propyl)-7-(3-(hydroxymethyl)-1,5-dimethyl-1H-1-pyrazol-4-yl)-N-((2-(1-methyl-1H-pyrrole-2-carboxamido)ethyl)sulfonyl)-1H-indole-2-carboxamide]
IC50 [1]: > 50 µM | IC50 [2]: > 50 µM | IC50 [3]: 50 µM | IC50 [4]: 18.4 µM | IC50 [5]: > 50 µM | IC50 [6]: 10.7 µM | IC50 [7]: 33.9 µM | IC50 [8]: 26.8 µM | Ki [9, 12]: ≤ 0.1 µM

Cc1cc(OCCCc2c(C(=O)NS(=O)(=O)CCNC(=O)c3cccn3Cc3ccccc3)[nH]c3c(-c4c(CO)nn(C)c4C)cccc23)cc(C)c1Cl [Example 207, N-((2-(1-benzyl-1H-pyrrole-2-carboxamido)ethyl)sulfonyl)-3-(3-(4-chloro-3,5-dimethylphenoxy)propyl)-7-(3-(hydroxymethyl)-1,5-dimethyl-1H-pyrazol-4-yl)-1H-indole-2-carboxamide]
IC50 [1]: > 50 µM | IC50 [2]: > 50 µM | IC50 [3]: 45.7 µM | IC50 [4]: 14.2 µM | IC50 [5]: 30 µM | IC50 [6]: 10.1 µM | IC50 [7]: 12 µM | IC50 [8]: 14.8 µM | Ki [9, 12]: ≤ 0.1 µM

Cc1cc(OCCCc2c(C(=O)O)sc3cc(Cl)ccc23)cc(C)c1Cl [Example 6]
Ki [10]: 2.4 µM | Ki [11]: 0.99 µM

O=C(O)c1oc2ccccc2c1CCCOc1cccc2ccccc12 [Example 21, 3-(3-(naphthalen-1-yloxy)propyl)benzofuran-2-carboxylic acid]
Ki [11]: 4.6 µM

Cc1cc(OCCCc2c(C(=O)NS(=O)(=O)c3ccccc3)[nH]c3c(-c4cccnc4C)cccc23)cc(C)c1Cl [Example 97, 3-(3-(4-chloro-3,5-dimethylphenoxy)propyl)-7-(2-methylpyridin-3-yl)-N-(phenylsulfonyl)-1H-indole-2-carboxamide]
IC50 [1]: 16.9 µM | IC50 [2]: 17.9 µM | IC50 [3]: 13.8 µM | IC50 [4]: 12.9 µM | IC50 [5]: 23.3 µM | IC50 [6]: 2.6 µM | IC50 [7]: 5.1 µM | IC50 [8]: 11.2 µM

O=C(O)c1sc2cc(Cl)ccc2c1CCCOc1cccc2ccccc12 [Example 5, 6-chloro-3-(3-(naphthalen-1-yloxy)propyl)benzo[b]thiophene-2-carboxylic acid]
Ki [11]: 1.1 µM

Cc1cc(OCCCc2c(C(=O)NS(=O)(=O)CC3CCN(C(=O)OCc4ccccc4)CC3)[nH]c3cc(Cl)ccc23)cc(C)c1Cl [Example 209, benzyl 4-((N-(6-chloro-3-(3-(4-chloro-3,5-dimethylphenoxy)propyl)-1H-indole-2-carbonyl)sulfamoyl)methyl)piperidine-1-carboxylate]
Ki [9]: 0.301 to 0.5 µM

Cc1cc(OCCCc2c(C(=O)NS(=O)(=O)CCNC(=O)[C@@H]3Cc4ccccc4N3C)[nH]c3cc(Cl)ccc23)cc(C)c1Cl [Example 238, (S)-6-chloro-3-(3-(4-chloro-3,5-dimethylphenoxy)propyl)-N-((2-(1-methylindoline-2-carboxamido)ethyl)sulfonyl)-1H-indole-2-carboxamide]
Ki [9]: 0.101 to 0.299 µM

Cc1cc(OCCCc2c(C(=O)NS(=O)(=O)c3ccc(OCc4ccccc4)cc3)n(C)c3cc(Cl)ccc23)cc(C)c1Cl [Example 270, N-((4-(benzyloxy)phenyl)sulfonyl)-6-chloro-3-(3-(4-chloro-3,5-dimethylphenoxy)propyl)-1-methyl-1H-indole-2-carboxamide]
Ki [9]: 0.301 to 0.5 µM

Cc1cc(OCCCc2c(C(=O)NS(=O)(=O)CCNC(=O)c3cccc(-c4ccccc4)c3)[nH]c3ccccc23)cc(C)c1Cl [Example 165, N-((2-([1,1′-biphenyl]-3-ylcarboxamido)ethyl)sulfonyl)-3-(3-(4-chloro-3,5-dimethylphenoxy)propyl)-1H-indole-2-carboxamide]
Ki [9]: 0.301 to 0.5 µM

Cc1cc(OCCCc2c(C(=O)NS(=O)(=O)c3ccc(Oc4ccc(Cl)c(Cl)c4)cc3)[nH]c3cc(Cl)ccc23)cc(C)c1Cl [Example 221, 6-chloro-3-(3-(4-chloro-3,5-dimethylphenoxy)propyl)-N-((4-(3,4-dichlorophenoxy)phenyl)sulfonyl)-1H-indole-2-carboxamide]
Ki [9]: 0.301 to 0.5 µM

Cc1cc(OCCCc2c(C(=O)NS(C)(=O)=O)[nH]c3cccc(C)c23)cc(C)c1Cl [Example 116, 3-(3-(4-chloro-3,5-dimethylphenoxy)propyl)-4-methyl-N-(methylsulfonyl)-1H-indole-2-carboxamide]
Ki [9, 12]: ≤ 0.1 µM

Cc1cc(OCCCc2c(C(=O)NS(C)(=O)=O)[nH]c3cc(Cl)ccc23)cc(C)c1Cl [Example 54, 6-chloro-3-(3-(4-chloro-3,5-dimethylphenoxy)propyl)-N-(methylsulfonyl)-1H-indole-2-carboxamide]
Ki [9]: 0.101 to 0.299 µM

COc1ccc(S(=O)(=O)NCCS(=O)(=O)NC(=O)c2[nH]c3ccccc3c2CCCOc2cc(C)c(Cl)c(C)c2)cc1 [Example 147, 3-(3-(4-chloro-3,5-dimethylphenoxy)propyl)-N-((2-(4-methoxyphenylsulfonamido)ethyl)sulfonyl)-1H-indole-2-carboxamide]
Ki [9]: 0.301 to 0.5 µM

CS(=O)(=O)NC(=O)c1[nH]c2cccc(Br)c2c1CCCOc1cccc2ccccc12 [Example 115, 4-bromo-N-(methylsulfonyl)-3-(3-(naphthalen-1-yloxy)propyl)-1H-indole-2-carboxamide]
Ki [9]: 0.501 to 0.999 µM

COc1ccc(Oc2cccc(S(=O)(=O)NC(=O)c3[nH]c4cc(Cl)ccc4c3CCCOc3cc(C)c(Cl)c(C)c3)c2)cc1 [Example 220, 6-chloro-3-(3-(4-chloro-3,5-dimethylphenoxy)propyl)-N-((3-(4-methoxyphenoxy)phenyl)sulfonyl)-1H-indole-2-carboxamide]
Ki [9]: 0.101 to 0.299 µM

Cc1cc(OCCCc2c(C(=O)NS(=O)(=O)c3ccnc(Cl)c3)[nH]c3ccccc23)cc(C)c1Cl [Example 135, 3-(3-(4-chloro-3,5-dimethylphenoxy)propyl)-N-((2-chloropyridin-4-yl)sulfonyl)-1H-indole-2-carboxamide]
Ki [9]: 0.301 to 0.5 µM

Cc1cc(OCCCc2c(C(=O)NS(C)(=O)=O)[nH]c3cccc(C(F)(F)F)c23)ccc1Cl [Example 80, 3-(3-(4-chloro-3-methylphenoxy)propyl)-N-(methylsulfonyl)-4-(trifluoromethyl)-1H-indole-2-carboxamide]
Ki [9]: 0.101 to 0.299 µM

Cc1cc(OCCCc2c(C(=O)NS(=O)(=O)CCNS(=O)(=O)c3ccc(Cl)c(Cl)c3)[nH]c3ccccc23)cc(C)c1Cl [Example 148, 3-(3-(4-chloro-3,5-dimethylphenoxy)propyl)-N-((2-(3,4-dichlorophenylsulfonamido)ethyl)sulfonyl)-1H-indole-2-carboxamide]
Ki [9]: 0.101 to 0.299 µM
